Assay results from US20230104936A1, “TRPML MODULATORS” (Casma Therapeutics, Inc., priority 2019, published 2023).

system: TFEB; test: TFEB nuclear translocation assay, HeLa wt cells; assay type: cell-based; conditions: Homo sapiens, HeLa, 2 h, 2 hrs compound treatment, Table 1 does not say HeLa wt or TRPML1 KO
Method in brief: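 Read-out is the ratio of TFEB immunofluorescence in the nucleus to that in a ring just outside it, measured by automated imaging. HeLa wt cells received compounds for 2 hrs at 37° C before fixation and staining; AC50 values come from this ratio.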

| SMILES | AC50 [µM] |
| --- | --- |
| CN(C)S(=O)(=O)c1ccc(S(=O)(=O)Nc2ccccc2[C@H]2CC[C@@H](c3ccc(Cl)cc3F)CC2)cc1 [Compound A-69, N1-(2-(4-(4-chloro-2-fluorophenyl)cyclohexyl)phenyl)-N4,N4-dimethylbenzene-1,4-disulfonamide] | 2.01 to 8 |
| CN(C)S(=O)(=O)c1ccc(S(=O)(=O)Nc2ccccc2[C@H]2CC[C@H](c3ccc(Cl)cc3F)CC2)cc1 [Compound A-70, N1-(2-(4-(4-chloro-2-fluorophenyl)cyclohexyl)phenyl)-N4,N4-dimethylbenzene-1,4-disulfonamide] | ≤ 2 |
| CN(C)S(=O)(=O)c1ccc(S(=O)(=O)N2CCC(N3CCC(c4ccc(Cl)cc4F)CC3)C2=O)cc1 (centres unmarked) [Compound A-71, 4-((3-(4-(4-chloro-2-fluorophenyl)piperidin-1-yl)-2-oxopyrrolidin-1-yl)sulfonyl)-N,N-dimethylbenzenesulfonamide] | ≥ 10 |
| Cc1ccc(S(=O)(=O)Nc2ccccc2N2CCC(c3ccc(Cl)cc3F)CC2)cc1 [Compound A-72, N-{2-[4-(4-chloro-2-fluorophenyl)piperidin-1-yl]phenyl}-4-methylbenzene-1-sulfonamide] | ≤ 2 |
| O=S(=O)(Nc1ccccc1N1CCC(c2ccc(Cl)cc2F)CC1)c1ccc(Cl)cc1 [Compound A-73, 4-chloro-N-{2-[4-(4-chloro-2-fluorophenyl)piperidin-1-yl]phenyl}benzene-1-sulfonamide] | ≤ 2 |
| O=S(=O)(Nc1ccccc1N1CCC(c2ccc(Cl)cc2F)CC1)c1ccc(F)cc1 [Compound A-74, N-{2-[4-(4-chloro-2-fluorophenyl)piperidin-1-yl]phenyl}-4-fluorobenzene-1-sulfonamide] | 2.01 to 8 |
| Cc1nn(C)c(NS(=O)(=O)c2ccc(S(=O)(=O)N(C)C)cc2)c1C1CCN(c2ccc(Cl)cc2F)CC1 [Compound A-75, N1-(4-(1-(4-chloro-2-fluorophenyl)piperidin-4-yl)-1,3-dimethyl-1H-pyrazol-5-yl)-N4,N4-dimethylbenzene-1,4-disulfonamide] | ≥ 10 |
| O=S(=O)(Nc1ccccc1N1CCC(c2ccc(Cl)cc2F)CC1)c1ccccc1Cl [Compound A-76, 2-chloro-N-{2-[4-(4-chloro-2-fluorophenyl)piperidin-1-yl]phenyl}benzene-1-sulfonamide] | ≥ 10 |
| O=S(=O)(Nc1ccccc1N1CCC(c2ccc(Cl)cc2F)CC1)c1cccc(Cl)c1 [Compound A-77, 3-chloro-N-{2-[4-(4-chloro-2-fluorophenyl)piperidin-1-yl]phenyl}benzene-1-sulfonamide] | ≤ 2 |
| O=S(=O)(Nc1ccccc1N1CCC(c2ccc(Cl)cc2F)CC1)c1cccc(F)c1 [Compound A-78, N-{2-[4-(4-chloro-2-fluorophenyl)piperidin-1-yl]phenyl}-3-fluorobenzene-1-sulfonamide] | ≥ 10 |
| O=S(=O)(Nc1ccccc1N1CCC(c2ccc(Cl)cc2F)CC1)c1ccccc1F [Compound A-79, N-{2-[4-(4-chloro-2-fluorophenyl)piperidin-1-yl]phenyl}-2-fluorobenzene-1-sulfonamide] | ≥ 10 |
| O=S(=O)(Nc1ccccc1N1CCC(c2ccc(Cl)cc2F)CC1)c1ccc(F)c(F)c1 [Compound A-80, N-{2-[4-(4-chloro-2-fluorophenyl)piperidin-1-yl]phenyl}-3,4-difluorobenzene-1-sulfonamide] | 2.01 to 8 |
| O=S(=O)(Nc1ccccc1N1CCC(c2ccc(Cl)cc2F)CC1)c1c(F)cccc1F [Compound A-81, N-{2-[4-(4-chloro-2-fluorophenyl)piperidin-1-yl]phenyl}-2,6-difluorobenzene-1-sulfonamide] | ≥ 10 |
| O=S(=O)(Nc1ccccc1N1CCC(c2ccc(Cl)cc2F)CC1)c1cc(F)ccc1F [Compound A-82, N-{2-[4-(4-chloro-2-fluorophenyl)piperidin-1-yl]phenyl}-2,5-difluorobenzene-1-sulfonamide] | ≥ 10 |
| O=S(=O)(Nc1ccccc1N1CCC(c2ccc(Cl)cc2F)CC1)c1ccc(C(F)(F)F)cc1 [Compound A-83, N-{2-[4-(4-chloro-2-fluorophenyl)piperidin-1-yl]phenyl}-4-(trifluoromethyl)benzene-1-sulfonamide] | ≤ 2 |
| CN(C)S(=O)(=O)c1ccc(S(=O)(=O)Nc2nc(C3CCN(c4ccc(Cl)cc4F)CC3)cn2C)cc1 [Compound A-84, N4-{4-[1-(4-chloro-2-fluorophenyl)piperidin-4-yl]-1-methyl-1H-imidazol-2-yl}-N1,N1-dimethylbenzene-1,4-disulfonamide] | ≥ 10 |
| O=C1c2ccccc2S(=O)(=O)N1c1ccccc1N1CCC(c2ccc(Cl)cc2F)CC1 [Compound A-85, 2-{2-[4-(4-chloro-2-fluorophenyl)piperidin-1-yl]phenyl}-2,3-dihydro-1λ^6,2-benzothiazole-1,1,3-trione] | ≥ 10 |
| CN(C)S(=O)(=O)c1ccc(S(=O)(=O)N2CCN(C3CCN(c4ccc(Cl)cc4F)CC3)C2=O)cc1 [Compound A-86, 4-((3-(1-(4-chloro-2-fluorophenyl)piperidin-4-yl)-2-oxoimidazolidin-1-yl)sulfonyl)-N,N-dimethylbenzenesulfonamide] | ≥ 10 |

| SMILES | AC50 [µM] |
| --- | --- |
| O=S(=O)(Nc1ccccc1N1CCC(c2ccc(Cl)cc2F)CC1)c1ccc(F)cc1F [Compound A-87, N-{2-[4-(4-chloro-2-fluorophenyl)piperidin-1-yl]phenyl}-2,4-difluorobenzene-1-sulfonamide] | ≥ 10 |
| Cc1ccc(S(=O)(=O)Nc2ccccc2N2CC=C(c3ccc(Cl)cn3)CC2)cc1 [Compound A-88, N-(2-{5-chloro-1′,2′,3′,6′-tetrahydro-[2,4′-bipyridin]-1′-yl}phenyl)-4-methylbenzene-1-sulfonamide] | 2.01 to 8 |
| Cc1nc(N2CCN(c3ccc(Cl)cc3F)CC2=O)cn1S(=O)(=O)c1ccc(S(=O)(=O)N(C)C)cc1 [Compound A-89, 4-((4-(4-(4-chloro-2-fluorophenyl)-2-oxopiperazin-1-yl)-2-methyl-1H-imidazol-1-yl)sulfonyl)-N,N-dimethylbenzenesulfonamide] | ≤ 2 |
| O=S(=O)(Nc1ccccc1N1CCC(c2ccc(Cl)cc2F)CC1)c1cc(F)cc(F)c1 [Compound A-91, N-{2-[4-(4-chloro-2-fluorophenyl)piperidin-1-yl]phenyl}-3,5-difluorobenzene-1-sulfonamide] | ≥ 10 |
| Cc1ccc(S(=O)(=O)Nc2ccccc2N2CCC(c3ccccn3)CC2)cc1 [Compound A-92, 4-methyl-N-{2-[4-(pyridin-2-yl)piperidin-1-yl]phenyl}benzene-1-sulfonamide] | ≤ 2 |
| Cc1ccc(S(=O)(=O)Nc2ccccc2-n2ccc(-c3ccc(Cl)cc3F)c2)cc1 [Compound A-93, N-{2-[3-(4-chloro-2-fluorophenyl)-1H-pyrrol-1-yl]phenyl}-4-methylbenzene-1-sulfonamide] | ≥ 10 |
| O=S1(=O)c2ccccc2CN1c1ccccc1N1CCC(c2ccc(Cl)cc2F)CC1 [Compound A-94, 2-{2-[4-(4-chloro-2-fluorophenyl)piperidin-1-yl]phenyl}-2,3-dihydro-1λ^6,2-benzothiazole-1,1-dione] | 2.01 to 8 |
| CN(C)S(=O)(=O)c1ccc(S(=O)(=O)n2ccc(C3CCN(c4ncc(Cl)cc4F)CC3)n2)cc1 [Compound A-96, 4-((3-(1-(5-chloro-3-fluoropyridin-2-yl)piperidin-4-yl)-1H-pyrazol-1-yl)sulfonyl)-N,N-dimethylbenzenesulfonamide] | ≥ 10 |
| O=S(=O)(Nc1ccccc1N1CCC(c2ccc(Cl)cc2F)CC1)c1cccc(F)c1F [Compound A-97, N-{2-[4-(4-chloro-2-fluorophenyl)piperidin-1-yl]phenyl}-2,3-difluorobenzene-1-sulfonamide] | ≥ 10 |
| CS(=O)(=O)c1ccc(S(=O)(=O)Nc2ccccc2N2CCC(c3ccc(Cl)cc3F)CC2)cc1 [Compound A-98, N-{2-[4-(4-chloro-2-fluorophenyl)piperidin-1-yl]phenyl}-4-methanesulfonylbenzene-1-sulfonamide] | ≤ 2 |
| COc1ccc(S(=O)(=O)Nc2ccccc2N2CCC(c3ccc(Cl)cc3F)CC2)cc1 [Compound A-99, N-{2-[4-(4-chloro-2-fluorophenyl)piperidin-1-yl]phenyl}-4-methoxybenzene-1-sulfonamide] | ≤ 2 |
| CS(=O)(=O)c1ccc(S(=O)(=O)Nc2ccccc2N2CCC(c3ccc(F)cc3F)CC2)cc1 [Compound A-100, N-{2-[4-(2,4-difluorophenyl)piperidin-1-yl]phenyl}-4-methanesulfonylbenzene-1-sulfonamide] | ≤ 2 |
| N#Cc1ccc(S(=O)(=O)Nc2ccccc2N2CCC(c3ccc(Cl)cc3F)CC2)cc1 [Compound A-101, N-{2-[4-(4-chloro-2-fluorophenyl)piperidin-1-yl]phenyl}-4-cyanobenzene-1-sulfonamide] | 2.01 to 8 |
| Cc1ccc(S(=O)(=O)Nc2ccccc2N2CCC(c3ccc(Cl)cc3F)C2)cc1 (centres unmarked) [Compound A-102, N-{2-[3-(4-chloro-2-fluorophenyl)pyrrolidin-1-yl]phenyl}-4-methylbenzene-1-sulfonamide] | 2.01 to 8 |
| Cc1ccc(S(=O)(=O)Nc2ccccc2N2CCC(c3ccc(Cl)cn3)CC2)cc1 [Compound A-103, N-{2-[4-(5-chloropyridin-2-yl)piperidin-1-yl]phenyl}-4-methylbenzene-1-sulfonamide] | ≤ 2 |
| CN(C)S(=O)(=O)c1ccc(S(=O)(=O)N(C)c2ccccc2N2CCC(c3ccc(Cl)cc3F)CC2)cc1 [Compound A-104, N1-{2-[4-(4-chloro-2-fluorophenyl)piperidin-1-yl]phenyl}-N1,N4,N4-trimethylbenzene-1,4-disulfonamide] | ≤ 2 |
| Cc1noc(NS(=O)(=O)c2ccc(S(=O)(=O)N(C)C)cc2)c1C1CCN(c2ccc(Cl)cc2F)CC1 [Compound A-105, N4-{4-[1-(4-chloro-2-fluorophenyl)piperidin-4-yl]-3-methyl-1,2-oxazol-5-yl}-N1,N1-dimethylbenzene-1,4-disulfonamide] | ≥ 10 |
